± gives the expanded uncertainty stated by the source.
Assay: molar heat capacity at constant pressure
Details: 101.33 kPa

O=P([O-])([O-])[O-].[Cs+].[Ni+2] [cesium nickel monophosphate]
Details	molar heat capacity at constant pressure [J/K/mol]
344.8 K, Crystal 2, DSC	162.96 ± 7.5
345.8 K, Crystal 2, DSC	163.79 ± 7.5
346.8 K, Crystal 2, DSC	163.79 ± 7.5
347.8 K, Crystal 2, DSC	163.79 ± 7.5
348.8 K, Crystal 2, DSC	164.63 ± 7.5
349.8 K, Crystal 2, DSC	165.46 ± 7.5
350 K, Crystal 2, Small (less than 1 g) adiabatic calorimetry	165.04 ± 4.2
350.8 K, Crystal 2, DSC	165.46 ± 7.5
351.8 K, Crystal 2, DSC	165.46 ± 7.5
352.8 K, Crystal 2, DSC	166.29 ± 7.5
353.8 K, Crystal 2, DSC	167.12 ± 7.5
354.8 K, Crystal 2, DSC	167.12 ± 7.5
355.8 K, Crystal 2, DSC	167.12 ± 7.5
356.8 K, Crystal 2, DSC	167.95 ± 7.5
357.8 K, Crystal 2, DSC	167.95 ± 7.5
358.8 K, Crystal 2, DSC	168.78 ± 7.5
359.8 K, Crystal 2, DSC	168.78 ± 7.5
360 K, Crystal 2, Small (less than 1 g) adiabatic calorimetry	169.2 ± 4.2
360.8 K, Crystal 2, DSC	169.61 ± 7.5
361.8 K, Crystal 2, DSC	170.45 ± 7.5
362.8 K, Crystal 2, DSC	170.45 ± 7.5
363.8 K, Crystal 2, DSC	170.45 ± 7.5
364.8 K, Crystal 2, DSC	171.28 ± 7.5
365.8 K, Crystal 2, DSC	172.11 ± 7.5
366.8 K, Crystal 2, DSC	172.11 ± 7.5
367.8 K, Crystal 2, DSC	172.94 ± 7.5
368.8 K, Crystal 2, DSC	172.94 ± 7.5
369.8 K, Crystal 2, DSC	172.94 ± 7.5
370 K, Crystal 2, Small (less than 1 g) adiabatic calorimetry	173.36 ± 4.4
370.8 K, Crystal 2, DSC	173.77 ± 7.5
371.8 K, Crystal 2, DSC	173.77 ± 7.5
372.8 K, Crystal 2, DSC	174.6 ± 7.5
373.8 K, Crystal 2, DSC	175.44 ± 7.5
374.8 K, Crystal 2, DSC	177.1 ± 7.5
376.3 K, Crystal 2, DSC	180.42 ± 7.5
380 K, Crystal 2, Small (less than 1 g) adiabatic calorimetry	176.27 ± 4.5
382.8 K, Crystal 1, DSC	178.26 ± 7.7
382.8 K, Crystal 2, Small (less than 1 g) adiabatic calorimetry	176.68 ± 4.5
387.8 K, Crystal 1, DSC	183.75 ± 8.3
388.8 K, Crystal 1, DSC	179.59 ± 7.5
389.8 K, Crystal 1, DSC	177.93 ± 7.5
390 K, Crystal 1, DSC	177.1 ± 7.6
390.8 K, Crystal 1, DSC	177.1 ± 7.5
391.8 K, Crystal 1, DSC	177.1 ± 7.5
392.8 K, Crystal 1, DSC	177.1 ± 7.5
393.8 K, Crystal 1, DSC	177.1 ± 7.5
394.8 K, Crystal 1, DSC	176.27 ± 7.5
395.8 K, Crystal 1, DSC	177.1 ± 7.5
396.8 K, Crystal 1, DSC	176.27 ± 7.5
397.8 K, Crystal 1, DSC	176.27 ± 7.5
398.8 K, Crystal 1, DSC	176.27 ± 7.5
399.8 K, Crystal 1, DSC	176.27 ± 7.5
400 K, Crystal 1, DSC	175.85 ± 7.6
400.8 K, Crystal 1, DSC	175.44 ± 7.5
402.8 K, Crystal 1, DSC	175.44 ± 7.5
404.8 K, Crystal 1, DSC	174.6 ± 7.5
407.1 K, Crystal 1, DSC	174.6 ± 7.5
408.8 K, Crystal 1, DSC	174.6 ± 7.5
410 K, Crystal 1, DSC	175.02 ± 7.6
410.8 K, Crystal 1, DSC	174.6 ± 7.5
412.8 K, Crystal 1, DSC	174.6 ± 7.5
414.8 K, Crystal 1, DSC	174.6 ± 7.5
416.8 K, Crystal 1, DSC	174.6 ± 7.5
418.8 K, Crystal 1, DSC	174.6 ± 7.5
420 K, Crystal 1, DSC	174.52 ± 7.6
420.8 K, Crystal 1, DSC	174.6 ± 7.5
422.8 K, Crystal 1, DSC	174.6 ± 7.5
424.8 K, Crystal 1, DSC	174.6 ± 7.5
426.8 K, Crystal 1, DSC	174.6 ± 7.5
428.8 K, Crystal 1, DSC	174.6 ± 7.5
430 K, Crystal 1, DSC	174.27 ± 7.6
430.8 K, Crystal 1, DSC	174.6 ± 7.5
432.8 K, Crystal 1, DSC	174.6 ± 7.5
434.8 K, Crystal 1, DSC	174.6 ± 7.5
436.8 K, Crystal 1, DSC	174.6 ± 7.5
438.8 K, Crystal 1, DSC	174.6 ± 7.5
440 K, Crystal 1, DSC	174.27 ± 7.6
440.8 K, Crystal 1, DSC	173.77 ± 7.5
442.8 K, Crystal 1, DSC	174.6 ± 7.5
444.8 K, Crystal 1, DSC	174.6 ± 7.5
446.8 K, Crystal 1, DSC	174.6 ± 7.5
448.8 K, Crystal 1, DSC	173.77 ± 7.5
450 K, Crystal 1, DSC	174.44 ± 7.6
450.8 K, Crystal 1, DSC	173.77 ± 7.5
452.8 K, Crystal 1, DSC	173.77 ± 7.5
454.8 K, Crystal 1, DSC	174.6 ± 7.5
456.8 K, Crystal 1, DSC	173.77 ± 7.5
458.8 K, Crystal 1, DSC	174.6 ± 7.5
460 K, Crystal 1, DSC	174.77 ± 7.6
460.8 K, Crystal 1, DSC	174.6 ± 7.5
462.8 K, Crystal 1, DSC	174.6 ± 7.5
464.8 K, Crystal 1, DSC	174.6 ± 7.5
466.8 K, Crystal 1, DSC	174.6 ± 7.5
468.8 K, Crystal 1, DSC	175.44 ± 7.5
470 K, Crystal 1, DSC	175.19 ± 7.6
470.8 K, Crystal 1, DSC	175.44 ± 7.5
472.8 K, Crystal 1, DSC	175.44 ± 7.5
474.8 K, Crystal 1, DSC	175.44 ± 7.5
476.8 K, Crystal 1, DSC	176.27 ± 7.5
478.8 K, Crystal 1, DSC	176.27 ± 7.5
480 K, Crystal 1, DSC	175.68 ± 7.6

Source: the NIST ThermoML archive (doi:10.1016/j.jct.2018.10.006)
